# Tests used:
# [1] = target: CSF1R (human) (UniProt P07333); assay: HTRF
# [2] = target: LRRK2 (human) (UniProt Q5S007); assay: HTRF
# [3] = target: LRRK2 (human), Q5S007 [G2019S]; assay: HTRF
# [4] = target: PDGFRA (human) (UniProt P16234); assay: HTRF
# [5] = target: ABL1 (human) (UniProt P00519); assay: SelectScreen, TR FRET; details: compound 10.0 µM
# [6] = target: AKT1 (human) (UniProt P31749); assay: SelectScreen, TR FRET; details: compound 10.0 µM
# [7] = target: AURKA (human) (UniProt O14965); assay: SelectScreen, TR FRET; details: compound 10.0 µM
# [8] = target: CAMK2A (human) (UniProt Q9UQM7); assay: SelectScreen, TR FRET; details: compound 10.0 µM
# [9] = target: CDK1 CCNB1 (human) (UniProt P06493+P14635); assay: SelectScreen, TR FRET; details: compound 10.0 µM
# CDK1 CCNB1 (human), sequence (P06493 whole entry, looked up): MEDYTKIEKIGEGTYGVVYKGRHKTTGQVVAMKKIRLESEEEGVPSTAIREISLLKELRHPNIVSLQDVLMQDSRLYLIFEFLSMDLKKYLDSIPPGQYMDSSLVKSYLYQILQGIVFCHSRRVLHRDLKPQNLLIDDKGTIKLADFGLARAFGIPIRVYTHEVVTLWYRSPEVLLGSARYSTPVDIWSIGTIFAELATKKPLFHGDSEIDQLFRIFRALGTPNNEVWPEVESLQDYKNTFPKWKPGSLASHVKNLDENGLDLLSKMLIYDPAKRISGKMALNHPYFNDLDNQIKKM
# CDK1 CCNB1 (human), sequence (P14635 whole entry, looked up): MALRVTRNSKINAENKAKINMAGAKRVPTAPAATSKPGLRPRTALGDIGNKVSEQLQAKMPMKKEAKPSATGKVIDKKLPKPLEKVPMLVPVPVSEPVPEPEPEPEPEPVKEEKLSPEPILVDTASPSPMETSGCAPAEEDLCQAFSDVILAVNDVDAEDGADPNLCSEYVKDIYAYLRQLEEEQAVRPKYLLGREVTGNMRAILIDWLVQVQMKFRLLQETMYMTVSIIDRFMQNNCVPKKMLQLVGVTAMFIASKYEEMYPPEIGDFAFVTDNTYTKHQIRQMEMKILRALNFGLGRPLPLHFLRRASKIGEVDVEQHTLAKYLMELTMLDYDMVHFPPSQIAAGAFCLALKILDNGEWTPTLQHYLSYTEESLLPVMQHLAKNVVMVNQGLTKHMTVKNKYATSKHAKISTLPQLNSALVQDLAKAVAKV
# [10] = target: CDK2 CCNA2 (human) (UniProt P24941+P20248); assay: SelectScreen, TR FRET; details: compound 10.0 µM
# CDK2 CCNA2 (human), sequence (P20248 whole entry, looked up, other chains not shown): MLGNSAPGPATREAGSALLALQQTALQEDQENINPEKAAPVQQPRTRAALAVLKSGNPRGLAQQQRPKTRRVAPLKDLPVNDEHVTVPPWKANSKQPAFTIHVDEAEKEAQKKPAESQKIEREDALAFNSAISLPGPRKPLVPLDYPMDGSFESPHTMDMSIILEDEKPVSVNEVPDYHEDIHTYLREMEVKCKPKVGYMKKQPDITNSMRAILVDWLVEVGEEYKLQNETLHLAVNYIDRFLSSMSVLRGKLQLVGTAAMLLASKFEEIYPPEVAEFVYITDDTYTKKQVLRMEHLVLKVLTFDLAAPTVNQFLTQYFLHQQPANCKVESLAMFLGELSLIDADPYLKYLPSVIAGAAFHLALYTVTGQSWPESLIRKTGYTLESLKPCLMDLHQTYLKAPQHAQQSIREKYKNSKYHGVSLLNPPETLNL
# [11] = target: CDK5 CDK5R1 p25 (human) (UniProt Q15078+Q00535); assay: SelectScreen, TR FRET; details: compound 10.0 µM
# CDK5 CDK5R1 p25 (human), sequence (Q00535 whole entry, looked up): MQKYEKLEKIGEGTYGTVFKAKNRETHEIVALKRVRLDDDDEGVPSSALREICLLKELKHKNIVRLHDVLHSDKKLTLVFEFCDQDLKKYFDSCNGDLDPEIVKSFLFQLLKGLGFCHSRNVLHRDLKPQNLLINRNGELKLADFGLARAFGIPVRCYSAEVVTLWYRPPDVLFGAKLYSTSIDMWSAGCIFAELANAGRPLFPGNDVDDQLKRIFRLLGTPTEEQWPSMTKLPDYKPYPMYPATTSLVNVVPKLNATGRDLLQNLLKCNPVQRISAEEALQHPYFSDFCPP
# CDK5 CDK5R1 p25 (human), sequence (Q15078 whole entry, looked up): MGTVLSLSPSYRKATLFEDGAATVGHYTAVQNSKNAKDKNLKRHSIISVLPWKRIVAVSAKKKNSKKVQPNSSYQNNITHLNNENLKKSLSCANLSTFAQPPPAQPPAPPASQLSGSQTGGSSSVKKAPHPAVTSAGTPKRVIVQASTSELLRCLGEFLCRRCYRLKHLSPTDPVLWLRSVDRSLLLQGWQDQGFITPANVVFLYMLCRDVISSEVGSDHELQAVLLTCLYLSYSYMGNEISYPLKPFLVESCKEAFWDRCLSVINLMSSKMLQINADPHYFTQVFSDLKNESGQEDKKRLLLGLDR
# [12] = target: CHEK1 (human) (UniProt O14757); assay: SelectScreen, TR FRET; details: compound 10.0 µM
# [13] = target: CLK1 (human) (UniProt P49759); assay: SelectScreen, TR FRET; details: compound 10.0 µM
# [14] = target: CSF1R (human) (UniProt P07333); assay: SelectScreen, TR FRET; details: compound 10.0 µM
# [15] = target: DYRK1B (human) (UniProt Q9Y463); assay: SelectScreen, TR FRET; details: compound 10.0 µM
# [16] = target: ERBB4 (human) (UniProt Q15303); assay: SelectScreen, TR FRET; details: compound 10.0 µM
# [17] = target: FLT3 (human) (UniProt P36888); assay: SelectScreen, TR FRET; details: compound 10.0 µM
# [18] = target: GSK3B (human) (UniProt P49841); assay: SelectScreen, TR FRET; details: compound 10.0 µM
# [19] = target: INSR (human) (UniProt P06213); assay: SelectScreen, TR FRET; details: compound 10.0 µM
# [20] = target: IRAK4 (human) (UniProt Q9NWZ3); assay: SelectScreen, TR FRET; details: compound 10.0 µM
# IRAK4 (human), sequence (Q9NWZ3 whole entry, looked up): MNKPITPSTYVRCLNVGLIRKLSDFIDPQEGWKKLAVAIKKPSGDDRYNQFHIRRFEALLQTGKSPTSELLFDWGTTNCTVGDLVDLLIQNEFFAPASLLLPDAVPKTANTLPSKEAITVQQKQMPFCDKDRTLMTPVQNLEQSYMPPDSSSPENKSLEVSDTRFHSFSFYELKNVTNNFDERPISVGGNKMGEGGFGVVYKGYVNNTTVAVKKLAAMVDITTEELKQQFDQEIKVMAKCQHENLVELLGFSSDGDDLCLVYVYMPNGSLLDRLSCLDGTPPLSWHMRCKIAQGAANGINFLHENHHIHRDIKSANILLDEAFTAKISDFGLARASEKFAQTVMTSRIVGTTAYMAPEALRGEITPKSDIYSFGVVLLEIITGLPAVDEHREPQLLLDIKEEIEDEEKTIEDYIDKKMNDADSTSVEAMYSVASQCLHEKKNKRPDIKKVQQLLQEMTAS
# [21] = target: JAK1 JH1 JH2 (human) (UniProt P23458); assay: SelectScreen, TR FRET; details: compound 10.0 µM
# [22] = target: LCK (human) (UniProt P06239); assay: SelectScreen, TR FRET; details: compound 10.0 µM
# [23] = target: LRRK2 (human) (UniProt Q5S007); assay: SelectScreen, TR FRET; details: compound 10.0 µM
# [24] = target: MAP3K7 TAB1 (human) (UniProt Q15750+O43318); assay: SelectScreen, TR FRET; details: compound 10.0 µM
# [25] = target: MAPK1 (human) (UniProt P28482); assay: SelectScreen, TR FRET; details: compound 10.0 µM
# MAPK1 (human), sequence (P28482 whole entry, looked up): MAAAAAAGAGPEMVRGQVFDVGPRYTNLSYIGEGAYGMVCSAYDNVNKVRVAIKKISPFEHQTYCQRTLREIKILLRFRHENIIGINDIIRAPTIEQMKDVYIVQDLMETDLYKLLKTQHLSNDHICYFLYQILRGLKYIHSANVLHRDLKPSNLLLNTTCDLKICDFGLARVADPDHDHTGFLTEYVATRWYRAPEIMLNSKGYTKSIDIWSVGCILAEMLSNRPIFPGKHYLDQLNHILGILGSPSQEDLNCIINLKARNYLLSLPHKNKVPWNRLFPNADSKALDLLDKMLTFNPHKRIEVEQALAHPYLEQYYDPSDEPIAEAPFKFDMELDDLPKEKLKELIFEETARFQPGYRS
# [26] = target: MAPK10 (human) (UniProt P53779); assay: SelectScreen, TR FRET; details: compound 10.0 µM
# MAPK10 (human), sequence (P53779 whole entry, looked up): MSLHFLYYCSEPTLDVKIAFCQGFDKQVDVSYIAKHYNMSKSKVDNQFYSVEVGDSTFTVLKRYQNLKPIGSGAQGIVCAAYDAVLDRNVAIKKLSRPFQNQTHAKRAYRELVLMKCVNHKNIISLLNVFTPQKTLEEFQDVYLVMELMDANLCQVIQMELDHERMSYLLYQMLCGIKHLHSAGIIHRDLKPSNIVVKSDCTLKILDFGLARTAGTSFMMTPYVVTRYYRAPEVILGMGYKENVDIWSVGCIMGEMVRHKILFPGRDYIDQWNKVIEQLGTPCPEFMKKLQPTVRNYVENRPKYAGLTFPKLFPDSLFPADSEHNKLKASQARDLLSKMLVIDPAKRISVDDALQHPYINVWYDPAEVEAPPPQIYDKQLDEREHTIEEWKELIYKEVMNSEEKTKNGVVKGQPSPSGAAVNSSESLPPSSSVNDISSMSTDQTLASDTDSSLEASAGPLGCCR
# [27] = target: MARK2 (human) (UniProt Q7KZI7); assay: SelectScreen, TR FRET; details: compound 10.0 µM
# [28] = target: PAK4 (human) (UniProt O96013); assay: SelectScreen, TR FRET; details: compound 10.0 µM
# [29] = target: PDGFRA (human) (UniProt P16234); assay: SelectScreen, TR FRET; details: compound 10.0 µM
# [30] = target: PIK3CA PIK3R1 (human) (UniProt P27986+P42336); assay: SelectScreen, TR FRET; details: compound 10.0 µM
# [31] = target: PLK1 (human) (UniProt P53350); assay: SelectScreen, TR FRET; details: compound 10.0 µM
# PLK1 (human), sequence (P53350 whole entry, looked up): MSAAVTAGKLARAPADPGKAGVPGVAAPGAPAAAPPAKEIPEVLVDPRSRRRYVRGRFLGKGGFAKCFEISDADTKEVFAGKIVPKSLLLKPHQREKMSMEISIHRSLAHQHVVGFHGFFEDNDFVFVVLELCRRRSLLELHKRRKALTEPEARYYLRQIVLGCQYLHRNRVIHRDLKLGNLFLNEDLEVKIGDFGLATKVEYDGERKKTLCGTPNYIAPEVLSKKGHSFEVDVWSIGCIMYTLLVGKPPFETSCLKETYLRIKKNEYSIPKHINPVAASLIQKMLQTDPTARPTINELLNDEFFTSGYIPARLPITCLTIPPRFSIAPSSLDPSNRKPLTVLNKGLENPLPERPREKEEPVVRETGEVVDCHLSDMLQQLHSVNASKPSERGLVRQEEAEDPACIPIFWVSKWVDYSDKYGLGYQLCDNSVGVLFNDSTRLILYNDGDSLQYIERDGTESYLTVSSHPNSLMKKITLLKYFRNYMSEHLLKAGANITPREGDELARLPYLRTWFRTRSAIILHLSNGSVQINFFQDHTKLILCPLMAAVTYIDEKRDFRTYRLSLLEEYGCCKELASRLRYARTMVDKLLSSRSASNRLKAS
# [32] = target: PLK2 (human) (UniProt Q9NYY3); assay: SelectScreen, TR FRET; details: compound 10.0 µM
# [33] = target: PLK3 (human) (UniProt Q9H4B4); assay: SelectScreen, TR FRET; details: compound 10.0 µM
# [34] = target: PRKACA (human) (UniProt P17612); assay: SelectScreen, TR FRET; details: compound 10.0 µM
# [35] = target: PRKCB1 (human) (UniProt P05771); assay: SelectScreen, TR FRET; details: compound 10.0 µM
# PRKCB1 (human), sequence (P05771 whole entry, looked up): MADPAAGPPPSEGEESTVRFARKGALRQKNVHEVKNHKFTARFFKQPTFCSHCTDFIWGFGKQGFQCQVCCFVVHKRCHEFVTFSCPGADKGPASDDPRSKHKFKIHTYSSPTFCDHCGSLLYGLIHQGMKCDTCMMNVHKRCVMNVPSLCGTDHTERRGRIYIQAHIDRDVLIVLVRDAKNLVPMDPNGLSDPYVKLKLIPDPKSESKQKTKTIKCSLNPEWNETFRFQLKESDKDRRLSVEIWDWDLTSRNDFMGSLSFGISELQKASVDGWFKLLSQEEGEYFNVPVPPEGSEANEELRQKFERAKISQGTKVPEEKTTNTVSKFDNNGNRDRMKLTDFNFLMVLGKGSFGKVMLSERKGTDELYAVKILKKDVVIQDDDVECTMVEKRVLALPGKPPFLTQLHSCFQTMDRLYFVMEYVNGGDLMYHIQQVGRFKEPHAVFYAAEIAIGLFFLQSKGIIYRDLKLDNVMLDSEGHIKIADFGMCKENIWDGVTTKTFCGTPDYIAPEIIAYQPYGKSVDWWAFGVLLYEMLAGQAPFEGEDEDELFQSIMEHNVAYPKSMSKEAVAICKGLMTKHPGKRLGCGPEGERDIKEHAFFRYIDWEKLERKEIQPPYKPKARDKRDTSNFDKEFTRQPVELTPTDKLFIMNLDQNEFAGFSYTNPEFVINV
# [36] = target: PTK2B (human) (UniProt Q14289); assay: SelectScreen, TR FRET; details: compound 10.0 µM
# [37] = target: RAF1 (human) (UniProt P04049); assay: SelectScreen, TR FRET; details: compound 10.0 µM
# RAF1 (human), sequence (P04049 whole entry, looked up): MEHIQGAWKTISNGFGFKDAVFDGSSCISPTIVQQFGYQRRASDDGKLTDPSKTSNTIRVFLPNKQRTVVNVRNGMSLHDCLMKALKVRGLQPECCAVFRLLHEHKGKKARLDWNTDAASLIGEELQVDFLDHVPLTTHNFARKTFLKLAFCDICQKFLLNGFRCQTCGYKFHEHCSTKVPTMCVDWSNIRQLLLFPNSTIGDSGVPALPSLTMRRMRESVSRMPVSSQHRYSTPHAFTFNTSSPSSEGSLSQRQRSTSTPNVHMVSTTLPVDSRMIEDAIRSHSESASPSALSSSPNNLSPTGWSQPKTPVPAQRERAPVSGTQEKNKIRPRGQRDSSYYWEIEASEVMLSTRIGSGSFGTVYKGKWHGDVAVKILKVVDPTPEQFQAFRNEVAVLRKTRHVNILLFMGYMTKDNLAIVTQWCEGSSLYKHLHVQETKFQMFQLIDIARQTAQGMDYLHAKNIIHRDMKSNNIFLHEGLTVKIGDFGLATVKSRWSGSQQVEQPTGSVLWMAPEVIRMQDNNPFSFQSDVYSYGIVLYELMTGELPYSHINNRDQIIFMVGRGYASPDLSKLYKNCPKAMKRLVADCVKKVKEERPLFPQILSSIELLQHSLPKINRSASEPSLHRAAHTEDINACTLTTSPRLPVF
# [38] = target: RET (human) (UniProt P07949); assay: SelectScreen, TR FRET; details: compound 10.0 µM
# [39] = target: RIPK2 (human) (UniProt O43353); assay: SelectScreen, TR FRET; details: compound 10.0 µM
# [40] = target: ROCK2 (human) (UniProt O75116); assay: SelectScreen, TR FRET; details: compound 10.0 µM
# [41] = target: STK16 (human) (UniProt O75716); assay: SelectScreen, TR FRET; details: compound 10.0 µM
# [42] = target: STK3 (human) (UniProt Q13188); assay: SelectScreen, TR FRET; details: compound 10.0 µM
# [43] = target: SYK (human) (UniProt P43405); assay: SelectScreen, TR FRET; details: compound 10.0 µM
# [44] = target: TTK (human) (UniProt P33981); assay: SelectScreen, TR FRET; details: compound 10.0 µM
structure (smiles),measurement,setting,value
CC(C)Nc1c(C(N)=O)nnc2cc(-c3ccc(N4CCOCC4)cc3)ccc12,IC50,[1],22 nM
same,IC50,[2],9 nM
same,IC50,[3],12 nM
same,IC50,[4],262 nM
same,inhibition,[5],55.5%
same,inhibition,[6],1.33%
same,inhibition,[7],80.8%
same,inhibition,[8],17.4%
same,inhibition,[9],2.62%
same,inhibition,[10],5.12%
same,inhibition,[11],3.19%
same,inhibition,[12],93.2%
same,inhibition,[13],4.04%
same,inhibition,[14],97.3%
same,inhibition,[15],6.79%
same,inhibition,[16],14.7%
same,inhibition,[17],98.9%
same,inhibition,[18],42.2%
same,inhibition,[19],-0.801%
same,inhibition,[20],17.5%
same,inhibition,[21],72.3%
same,inhibition,[22],74.7%
same,inhibition,[23],98.6%
same,inhibition,[24],67.1%
same,inhibition,[25],-5.26%
same,inhibition,[26],16.6%
same,inhibition,[27],80.5%
same,inhibition,[28],59.5%
same,inhibition,[29],97.5%
same,inhibition,[30],15.2%
same,inhibition,[31],3.31%
same,inhibition,[32],5.59%
same,inhibition,[33],-15.6%
same,inhibition,[34],-1.97%
same,inhibition,[35],-0.227%
same,inhibition,[36],38.9%
same,inhibition,[37],27%
same,inhibition,[38],82.8%
same,inhibition,[39],44.4%
same,inhibition,[40],78%
same,inhibition,[41],39.9%
same,inhibition,[42],41.9%
same,inhibition,[43],81.4%
same,inhibition,[44],66.6%
C[C@@H](Nc1c(C(N)=O)nnc2cc(-c3ccc(S(C)(=O)=O)cc3)ccc12)C1CC1,inhibition,[6],4.06%
same,inhibition,[8],14.6%
same,inhibition,[9],-2.77%
same,inhibition,[10],-48.5%
same,inhibition,[11],-16.4%
same,inhibition,[13],5.47%
same,inhibition,[15],2.7%
same,inhibition,[16],11.7%
same,inhibition,[18],28.6%
same,inhibition,[19],0.279%
same,inhibition,[20],0.691%
same,inhibition,[25],-52.2%
same,inhibition,[26],20.5%
same,inhibition,[30],9.68%
same,inhibition,[31],1.06%
same,inhibition,[32],17.2%
same,inhibition,[33],4.63%
same,inhibition,[34],-0.763%
same,inhibition,[35],0.123%
same,inhibition,[37],21.3%
same,inhibition,[39],28.4%
same,inhibition,[41],-47.1%
CC(C)Nc1c(C(N)=O)nnc2ccc(-c3ccncc3)cc12,inhibition,[16],20.6%
same,inhibition,[19],13.3%
CC(C)Nc1c(C(N)=O)nnc2cc(-c3ccncc3)ccc12,inhibition,[6],12.7%
same,inhibition,[8],13.6%
same,inhibition,[16],22.3%
same,inhibition,[25],22.7%
same,inhibition,[31],33.4%
same,inhibition,[33],-0.393%
CS(=O)(=O)c1ccc(-c2ccc3c(NC4CCC4)c(C(N)=O)nnc3c2)cc1,inhibition,[6],4.88%
same,inhibition,[8],10.5%
same,inhibition,[9],7.35%
same,inhibition,[10],2.69%
same,inhibition,[11],-0.613%
same,inhibition,[13],13.7%
same,inhibition,[16],3.89%
same,inhibition,[19],7.17%
same,inhibition,[20],-6.26%
same,inhibition,[25],2.96%
same,inhibition,[30],1.77%
same,inhibition,[31],13.7%
same,inhibition,[32],10.6%
same,inhibition,[33],9.8%
same,inhibition,[34],0.0814%
same,inhibition,[35],-1.63%
CC(C)Nc1c(C(N)=O)cnc2cc(-c3ccc(S(C)(=O)=O)cc3)ccc12,inhibition,[6],4.75%
same,inhibition,[8],-0.0898%
same,inhibition,[9],1.38%
same,inhibition,[11],2.45%
same,inhibition,[13],1.75%
same,inhibition,[15],9.19%
same,inhibition,[18],6.45%
same,inhibition,[19],3.68%
same,inhibition,[26],4.17%
same,inhibition,[30],-1.65%
same,inhibition,[31],0.631%
same,inhibition,[32],7.12%
same,inhibition,[33],0.957%
same,inhibition,[34],5.91%
same,inhibition,[35],8.27%
same,inhibition,[37],16.7%

# — the kinase profiling compilation of Christmann-Franck et al. (2016)
